These are literature values, as cited in patent US20250228849A1, “FORMULATION AND MANUFACTURING PROCESS OF LIQUID FORMULATION OF RILPIVIRINE” (Aptorum Therapeutics Limited, priority 2024, published 2025).

SMILES strings stand for the structures. Read-outs that look alike come from different tables or passages of the source.

The conditions of data set [1]: hydrochloride salt form.
The conditions of data set [2]: pyrimidine nitrogen.

As for `Cc1cc(C=CC#N)cc(C)c1Nc1ccnc(Nc2ccc(C#N)cc2)n1.Cl` [Rilpivirine hydrochloride, 4-[[4-[[4-(2-cyanovinyl)-2,6-dimethylphenyl]amino]pyrimidin-2-yl]amino]benzonitrile hydrochloride], the BCS class result in data set [1] was “BCS Class II”. The pKa result in data set [2] is “approximately 5.6”. Also, the solubility result runs as follows: (in DMSO) “moderately soluble”; (in ethanol) “moderately soluble”; (in methanol) “moderately soluble”; (in water) “merely sparing solubility”.
With `Cc1cc(/C=C/C#N)cc(C)c1Nc1ccnc(Nc2ccc(C#N)cc2)n1` [rilpivirine], the solubility entry (in water) was “low aqueous solubility”.
